Reference: patent US20190322676A1, “CERAMIDE GALACTOSYLTRANSFERASE INHIBITORS FOR THE TREATMENT OF DISEASE” (BioMarin Pharmaceutical Inc., priority 2016, published 2019)
Where a name gives a salt, the structure may show the parent alone.

These compounds were tested against T1, human CGT (ceramide galactosyltransferase), CHO/CGT lysate (Homo sapiens, UniProt Q16880) (assay: CGT enzyme assay, RapidFire/MS/MS readout (Table 1 ranges with one asterisk *)). Conditions: RapidFire method (range with one asterisk *).
T1 construct: Full-length human CGT cDNA was cloned into the BamH1/Xho1 site of pcDNA3.1 (+); expressed in transfected cells; host or cells: Chinese hamster ovary (CHO) cells; lysate prepared with M-PER
T1 sequence (Q16880 21-541): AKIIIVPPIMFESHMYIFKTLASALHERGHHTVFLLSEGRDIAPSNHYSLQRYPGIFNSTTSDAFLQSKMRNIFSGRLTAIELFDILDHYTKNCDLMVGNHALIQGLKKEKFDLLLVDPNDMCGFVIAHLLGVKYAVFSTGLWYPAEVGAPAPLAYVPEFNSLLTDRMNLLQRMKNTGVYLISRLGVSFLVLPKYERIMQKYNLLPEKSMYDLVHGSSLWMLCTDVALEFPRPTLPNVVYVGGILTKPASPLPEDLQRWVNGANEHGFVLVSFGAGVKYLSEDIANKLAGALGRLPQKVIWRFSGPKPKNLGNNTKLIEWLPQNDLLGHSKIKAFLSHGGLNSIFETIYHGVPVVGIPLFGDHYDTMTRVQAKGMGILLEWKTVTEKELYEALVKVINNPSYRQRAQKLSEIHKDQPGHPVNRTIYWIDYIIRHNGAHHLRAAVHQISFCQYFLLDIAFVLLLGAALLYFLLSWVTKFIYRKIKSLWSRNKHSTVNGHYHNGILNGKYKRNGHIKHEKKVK
Format: biochemical
Procedure, shortened: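 IC50s come from variable-slope dose-response fits of internal-standard-normalized C6-NBD-dihydro-galactosylceramide, measured by RapidFire/MS/MS (ESI negative). Reactions: 1 h, 37 °C, human CGT-expressing CHO lysate (4 μg), 0.001–50 μM compound, 10 μM NBD-dihydro-ceramide, 17.5 μM UDP-galactose, 0.5% DMSO, pH 7.2; 0.01% Tween 80 added for ** values.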
For NC1CC2CCC(C1)N2C(=O)[C@H](NS(=O)(=O)c1ccc2cc(OC3CCCCC3)ccc2c1)C(F)(F)c1ccc(Br)cc1 (stereo partly drawn) [Compound 33-2, N-((2S)-3-(3-amino-8-azabicyclo[3.2.1]octan-8-yl)-1-(4-bromophenyl)-1,1-difluoro-3-oxopropan-2-yl)-6-(cyclohexyloxy)naphthalene-2-sulfonamide trifluoroacetate], the IC50 was 30 to 100 µM.
Compound NC1CCN(C(=O)[C@@H](NC(=O)[C@H](O)c2ccc(OCC3CCCCC3)cc2)C(F)(F)c2ccc(-c3ccc(Cl)cc3)cc2)CC1 [Compound 141-1, (R)—N—((R)-3-(4-aminopiperidin-1-yl)-1-(4′-chloro-[1,1′-biphenyl]-4-yl)-1,1-difluoro-3-oxopropan-2-yl)-2-(4-(cyclohexylmethoxy)phenyl)-2-hydroxyacetamide trifluoroacetate] has an IC50 of 1 to 10 µM.
NC1CC2CCC(C1)N2C(=O)[C@@H](NS(=O)(=O)c1ccc(OCC2CCCCC2)cc1)C(F)(F)c1ccc(OC2CCCCC2)cc1 (stereo partly drawn) [Compound 105-1, N-((2R)-3-(3-amino-8-azabicyclo[3.2.1]octan-8-yl)-1-(4-(cyclohexyloxy)phenyl)-1,1-difluoro-3-oxopropan-2-yl)-4-(cyclohexylmethoxy) benzenesulfonamide] was tested, and the IC50 was under 1 µM.
NCC1CCN(C(=O)[C@H](NS(=O)(=O)c2ccc3cc(OC4CCCC4)ccc3c2)C(F)(F)c2ccc(-c3ccc(Cl)cc3)cc2)CC1 [Compound 138-2, (S)—N-(3-(4-(aminomethyl)piperidin-1-yl)-1-(4′-chloro-[1,1′-biphenyl]-4-yl)-1,1-difluoro-3-oxopropan-2-yl)-6-(cyclopentyloxy)naphthalene-2-sulfonamide trifluoroacetate] gave an IC50 of 1 to 10 µM.
Work on NC1CC2CCC(C1)N2C(=O)[C@@H](NS(=O)(=O)c1ccc2cc(OC3CCCC3)ccc2c1)C(F)(F)c1ccc(Cl)s1 (stereo partly drawn) [Compound 130-1, N-((2R)-3-(3-amino-8-azabicyclo[3.2.1]octan-8-yl)-1-(5-chlorothiophen-2-yl)-1,1-difluoro-3-oxopropan-2-yl)-6-(cyclopentyloxy)naphthalene-2-sulfonamide] yielded an IC50 of 1 to 10 µM.
CN([C@@H](C(=O)N1C2CCC1CC(N)C2)C(F)(F)c1ccc(Br)cc1)S(=O)(=O)c1ccc2nn(CC3CCCC3)cc2c1 (stereo partly drawn) [Compound 78-2, N-((2S)-3-(3-amino-8-azabicyclo[3.2.1]octan-8-yl)-1-(4-bromophenyl)-1,1-difluoro-3-oxopropan-2-yl)-2-(cyclopentylmethyl)-N-methyl-2H-indazole-5-sulfonamide] gave an IC50 of 30 to 100 µM.
For NC1CC2CCC(C1)N2C(=O)[C@H](NS(=O)(=O)c1ccc2cc(OC3CCCC3)ccc2c1)C(F)(F)c1ccc(-c2ccc(F)cc2)cc1 (stereo partly drawn) [Compound 56-2, N-((2S)-3-(3-amino-8-azabicyclo[3.2.1]octan-8-yl)-1,1-difluoro-1-(4′-fluoro-[1,1′-biphenyl]-4-yl)-3-oxopropan-2-yl)-6-(cyclopentyloxy)naphthalene-2-sulfonamide trifluoroacetate], the IC50 was 1 to 10 µM.
Work on COc1ccc(C(F)(F)[C@@H](NS(=O)(=O)c2ccc3cc(OC4CCCC4)ccc3c2)C(=O)N2C3CCC2CC(N)C3)cc1 (stereo partly drawn) [Compound 45-2, N-((2S)-3-(3-amino-8-azabicyclo[3.2.1]octan-8-yl)-1,1-difluoro-1-(4-methoxyphenyl)-3-oxopropan-2-yl)-6-(cyclopentyloxy)naphthalene-2-sulfonamide] yielded an IC50 of 1 to 10 µM.
With NC1CC2CCC(C1)N2C(=O)[C@@H](NS(=O)(=O)c1ccc2c(cnn2CC2CCCC2)c1)C(F)(F)c1ccc(Br)cc1 (stereo partly drawn) [Compound 74-1, N-((2R)-3-(3-amino-8-azabicyclo[3.2.1]octan-8-yl)-1-(4-bromophenyl)-1,1-difluoro-3-oxopropan-2-yl)-1-(cyclopentylmethyl)-1H-indazole-5-sulfonamide] the IC50 was 1 to 10 µM.
NC1CCN(C(=O)[C@@H](NS(=O)(=O)c2ccc3cc(OC4CCCC4)ccc3c2)C(F)(F)c2ccc(Oc3ccccc3)cc2)CC1 [Compound 61-1, (R)—N-(3-(4-aminopiperidin-1-yl)-1,1-difluoro-3-oxo-1-(4-phenoxyphenyl)propan-2-yl)-6-(cyclopentyloxy)naphthalene-2-sulfonamide] was tested, and the IC50 was under 1 µM.
NC1CCN(C(=O)[C@@H](NS(=O)(=O)c2ccc3cc(OC4CCCC4)ccc3c2)C(F)(F)c2ccc(OC3CCCCC3)cc2)CC1 [Compound 97-1, (R)—N-(3-(4-aminopiperidin-1-yl)-1-(4-(cyclohexyloxy)phenyl)-1,1-difluoro-3-oxopropan-2-yl)-6-(cyclopentyloxy)naphthalene-2-sulfonamide] gave an IC50 of 1 to 10 µM.
For NC1CC2CCC(C1)N2C(=O)[C@H](NS(=O)(=O)c1ccc2cc(OC3CCCC3)ccc2c1)C(F)(F)c1ccc(OC2CCCCC2)cc1 (stereo partly drawn) [Compound 102-2, N-((2S)-3-(3-amino-8-azabicyclo[3.2.1]octan-8-yl)-1-(4-(cyclohexyloxy)phenyl)-1,1-difluoro-3-oxopropan-2-yl)-6-(cyclopentyloxy)naphthalene-2-sulfonamide], the IC50 was 1 to 10 µM.
With NC1CC2CCC(C1)N2C(=O)[C@H](NC(=O)C(=O)c1ccc2cc(OC3CCCC3)ccc2c1)C(F)(F)c1ccc(-c2ccc(Cl)cc2)cc1 (stereo partly drawn) [Compound 133-2, N-((2S)-3-(3-amino-8-azabicyclo[3.2.1]octan-8-yl)-1-(4′-chloro-[1,1′-biphenyl]-4-yl)-1,1-difluoro-3-oxopropan-2-yl)-2-(6-(cyclopentyloxy)naphthalen-2-yl)-2-oxoacetamide trifluoroacetate] the IC50 was 30 to 100 µM.
NC1CC2CCC(C1)N2C(=O)[C@@H](NS(=O)(=O)c1ccc2cc(OC3CCCC3)ccc2c1)C(F)(F)c1ccc(OC2CCCCC2)cc1 (stereo partly drawn) [Compound 102-1, N-((2R)-3-(3-amino-8-azabicyclo[3.2.1]octan-8-yl)-1-(4-(cyclohexyloxy)phenyl)-1,1-difluoro-3-oxopropan-2-yl)-6-(cyclopentyloxy) naphthalene-2-sulfonamide] showed an IC50 of under 1 µM.
Work on NC1CC2CCC(C1)N2C(=O)[C@@H](NS(=O)(=O)c1ccc2cc(OC3CCCC3)ccc2c1)C(F)(F)c1ccc(Oc2ccc(Cl)cc2)cc1 (stereo partly drawn) [Compound 121-1, N-((2R)-3-(3-amino-8-azabicyclo[3.2.1]octan-8-yl)-1-(4-(4-chlorophenoxy)phenyl)-1,1-difluoro-3-oxopropan-2-yl)-6-(cyclopentyloxy) naphthalene-2-sulfonamide] yielded an IC50 of under 1 µM.
CN([C@@H](C(=O)N1C2CCC1CC(N)C2)C(F)(F)c1ccc(OCc2ccccc2)cc1)S(=O)(=O)c1ccc2cc(OC3CCCC3)ccc2c1 (stereo partly drawn) [Compound 106-2, N-((2S)-3-(3-amino-8-azabicyclo[3.2.1]octan-8-yl)-1-(4-(benzyloxy)phenyl)-1,1-difluoro-3-oxopropan-2-yl)-6-(cyclopentyloxy)-N-methylnaphthalene-2-sulfonamide] was tested, and the IC50 was 1 to 10 µM.
With NC1CCN(C(=O)[C@H](NS(=O)(=O)c2ccc3cc(OC4CCCC4)ccc3c2)C(F)(F)c2ccc(-c3ccc(Cl)s3)cc2)CC1 [Compound 112-2, (S)—N-(3-(4-aminopiperidin-1-yl)-1-(4-(5-chlorothiophen-2-yl)phenyl)-1,1-difluoro-3-oxopropan-2-yl)-6-(cyclopentyloxy)naphthalene-2-sulfonamide trifluoroacetate] the IC50 was 1 to 10 µM.
In the case of NC1CCN(C(=O)[C@H](NS(=O)(=O)c2ccc3c(cnn3CC3CCCC3)c2)C(F)(F)c2ccc(Cl)cc2)CC1 [Compound 99-2, (S)—N-(3-(4-aminopiperidin-1-yl)-1-(4-chlorophenyl)-1,1-difluoro-3-oxopropan-2-yl)-1-(cyclopentylmethyl)-1H-indazole-5-sulfonamide], the IC50 is reported as 30 to 100 µM.
With NC1CCN(C(=O)[C@H](NC(=O)[C@H](O)c2ccc(OCC3CCCCC3)cc2)C(F)(F)c2ccc(-c3ccc(Cl)cc3)cc2)CC1 [Compound 141-4, (R)—N—((S)-3-(4-aminopiperidin-1-yl)-1-(4′-chloro-[1,1′-biphenyl]-4-yl)-1,1-difluoro-3-oxopropan-2-yl)-2-(4-(cyclohexylmethoxy)phenyl)-2-hydroxyacetamide trifluoroacetate] the IC50 was 30 to 100 µM.
For CN([C@@H](C(=O)N1C2CCC1CC(N)C2)C(F)(F)c1ccc(-c2ccccc2)cc1)S(=O)(=O)c1ccc2cc(OC3CCCC3)ccc2c1 (stereo partly drawn) [Compound 49-2, N-((2S)-1-([1,1′-biphenyl]-4-yl)-3-(3-amino-8-azabicyclo[3.2.1]octan-8-yl)-1,1-difluoro-3-oxopropan-2-yl)-6-(cyclopentyloxy)-N-methylnaphthalene-2-sulfonamide], the IC50 was 10 to 30 µM.
With COc1cc(C(F)(F)[C@H](NS(=O)(=O)c2ccc(OCC3CCCCC3)cc2)C(=O)N2C3CCC2CC(N)C3)ccc1Br (stereo partly drawn) [Compound 128-1, N-((2R)-3-(3-amino-8-azabicyclo[3.2.1]octan-8-yl)-1-(4-bromo-3-methoxyphenyl)-1,1-difluoro-3-oxopropan-2-yl)-4-(cyclohexylmethoxy) benzenesulfonamide] the IC50 was under 1 µM.
